In article PMC4839297, “HTS-Driven Discovery of New Chemotypes with West Nile Virus Inhibitory Activity” (Molecules, 2010):
Like-named read-outs stand apart in the source and are kept apart here.

Tests used:
[1] = system: WNV (NY-99 strain) infection of Vero E6 cells; test: Dose response assay in CPE based screen (antiviral efficacy); type: cell-based, West Nile virus
Protocol: (§1) To confirm the activity and to test the cytotoxicity, the top 110 inhibitory compounds were evaluated in a dose response assay using the identical screen.
After reviewing the data from the primary screen, 110 compounds were selected for a dose-response study. The same compound stocks (10 mM in 100% DMSO) were used to select 7 μL of the compounds into a low-volume, 384-well plate. The dose response plates were prepared using a “stacked-plate” format using a 1:2 dilution series for a total of ten concentrations. By using this format, each entire plate represents one of the ten concentrations in the dilution series. A 5 μL aliquot of each of the serial dilution plates was transferred to the assay plates along with an equal volume but separate transfer of controls. With the addition of 20 μL of cells and 5 μL of virus, the final test concentrations for the dose response screen were 30 μM, 15 μM, 7.5 μM, 3.75 μM, 1.875 μM, 0.9375 μM, 0.4688 μM, 0.2344 μM, 0.1172 μM, and 0.0586 μM all at […].
(§2) Cytotoxicity and antiviral efficacy were performed in a dose-response format in parallel. Compounds were serially diluted in complete media (MEM-E) with a 0.5% DMSO final concentration and adding 5 μL to cell plates, identical to the stacked plate method. A ten point, two-fold dilution series of compound concentrations ranging from 30 μM to 0.059 μM were used in the assay. Virus (0.04 MOI) or media was added for antiviral effect or cytotoxicity respectively. The plates were incubated 96 h in a 5% CO2 incubator at 37 °C. Cell viability was measured as stated above. The serially diluted compounds were also used for time of addition studies adding to the infected cells in 384-well plates at -1, 4, 8 and18 h post-infection with WNV (0.02 MOI). The plates were then developed as above 96 h after infection. The EC50 value was calculated for each time of addition point.
(§3) The Z′ value was employed to evaluate the assay’s robustness and was calculated from 1-(3×standard deviation of cell control (σc) + 3* standard deviation of the virus control (σv)/ [mean cell control signal (μc) minus mean virus control signal (μv)]). The signal/background (S/B) was calculated from the mean cell control signal (μc) divided by the mean virus control signal (μv). The signal/noise (S/N) was calculated from mean cell control signal (μc) minus mean virus control signal (μv) divided by the (standard deviation of the cell control signal (σc)^2 […] the standard deviation of the virus control signal (σv)^2)^1/2 [24]. The effective concentration at which the drug inhibited cell death at 50% in the presence of virus (EC50) and the cytotoxicity of the drug alone at 50% (CC50) were calculated using ActivityBase software (IDBS, Inc, Guildford, UK). CPE inhibition (%) and cell viability were calculated as described in elsewhere. The standard curve analysis function in SigmaPlot™ was used to calculate the inhibitory concentration (IC50 and IC50 values) for the protease and titer reduction assays.

[2] = system: WNV (NY-99 strain) infection of Vero E6 cells; test: Time of addition assay in dose response format; type: cell-based, West Nile virus; settings: for EC50 change pattern (time of addition): Table 2; for EC50 change pattern over the course of infection: Table 3, compound added at -1, 4, 8, 18 h post-infection; for EC50: West Nile virus, Vero C1008, 18 h, read-out: EC50 in time of addition assay
Protocol: The compounds selected by the primary and dose response screening were re-supplied from the suppliers as a solid form except 4 compounds; SMR000394098, SMR000059052, SMR000027739 and SRI-4578, which were not available at that time (Table 1). Time of addition assays were conducted in a dose response format with the 20 compounds. Serially diluted compounds were added to Vero E6 cells at -1, 4, 8 and 18 h post-infection. Luminescent data was calculated (as above) to obtain EC50 values for each compound at each time point of addition.
The EC50 of MPA was within a range of 2.0~5.0 μM regardless of when it was added.
as §2

[3] = system: WNV progeny virus in Vero E6 cells; test: Titer reduction assay (TCID50 of progeny virus); type: cell-based, West Nile virus; set-up: SI50 *: unit not given beside the values; settings: for SI50 *: Table 3, footnote to * not given; for EC90 / inhibition at 15 µM / EC50: West Nile virus; for EC90 / EC50: Vero C1008, 48 h; for EC90: read-out: Dose response in Titer reduction EC90; for inhibition at 15 µM: Vero C1008, read-out: inhibition of progeny virus titer; for EC50: read-out: Dose response in Titer reduction EC50
Protocol: Finally, we employed a titer reduction assay to confirm the antiviral activity of the seven compounds confirmed in the assays. The titer of the progeny virus produced in the presence of the compounds was measured in TCID50 format. […] The titer reduction assay confirmed the antiviral activity of the hit compounds selected through our pathway (Figure 6).
Vero E6 cells were seeded in a 12-well plate in a volume of 1 mL and incubated overnight at 37 °C and 5% CO2. The next day media was aspirated from the cells and they were infected by adsorption of WNV (0.1 MOI) for one hour in 100 μL media. After aspirating the virus and washing the cells with phosphate buffered saline, media was replenished containing compounds at various concentrations. The plates were incubated for 48 h. Progeny virus titer was measured by TCID50 assay in 384-well plate format with 6 wells per dilution of virus. CellTiter-Glo® reagent was employed to determine a cell death which is a sign of infection. A well with a luminescence signal less than the mean of the non-infected control signal, minus 5 times the standard deviation of the control, was regarded as a positive infection. The TCID50 was calculated with the numbers of positive infection and negative infection by the Reed-Muench method.

[4] = Cytotoxicity in dose-response format (CellTiter-Glo); type: cell-based; settings: African green monkey, Vero E6 cells (uninfected)
Protocol: as §1
as §2, with “A ten point, two-fold dilution series of compound concentrations ranging from 30 μM to 0.059 μM were used in the assay.” left out
as §3

WNV NS2b-NS3pro = molecular target: T1, WNV NS2b-NS3pro (West Nile virus, UniProt Q9Q6P4); test: WNV NS2b-NS3pro FRET based enzymatic assay; type: biochemical
T1 construct: A recombinant NS3 protease expressed and purified from E.coli; purchased AnaSpec Inc (CA, USA); host or cells: E. coli
From the text: The results from the time of addition assay led us to examine the NS3 protease as a potential target of the hit compounds. NS3 protease is an important enzyme responsible for the maturation of viral proteins at early stage during the replication of virus in the host cells. We tested the compounds for an inhibitory activity on NS3 protease using a FRET based, in vitro, enzymatic assay.
A recombinant NS3 protease expressed and purified from E.coli with the cofactor NS2b (residues 49-96) and a fluorescence resonance energy transfer (FRET) based assay kit were purchased from AnaSpec Inc (CA, USA). We followed an assay protocol published on line at PubChem by University of Pittsburgh Molecular Library Screening Center (http://www.ncbi.nlm.nih.gov/, AID:577). The assay was performed in a 384-well format with 10 ng/well of NS2b-NS3pro enzyme.

[5] = system: WNV (NY-99 strain) infection of Vero E6 cells; test: Single dose primary HTS, CPE based (CellTiter-Glo), 384-well; type: cell-based, West Nile virus
[6] = Table 1, CPE based dose response, Vero E6, WNV 0.04 MOI, 96 h, read-out: EC50
[7] = West Nile virus, Vero C1008, 96 h, Table 1, CPE based dose response, Vero E6, WNV 0.04 MOI, 96 h
[8] = West Nile virus, Vero C1008, read-out: Dose response in CPE based EC50, Table 3, Vero E6, WNV
[9] = Table 1, Vero E6 without virus, 96 h, read-out: CC50
[10] = Table 3, Vero E6, read-out: Dose response in CPE based CC50

T1 sequence (Q9Q6P4 1506-1683 limits assumed, looked up): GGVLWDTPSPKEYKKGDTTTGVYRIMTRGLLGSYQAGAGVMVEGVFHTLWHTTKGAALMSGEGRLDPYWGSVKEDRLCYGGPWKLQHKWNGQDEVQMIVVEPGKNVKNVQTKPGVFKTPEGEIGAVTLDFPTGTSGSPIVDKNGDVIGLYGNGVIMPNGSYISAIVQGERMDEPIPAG
T1 sequence (Q9Q6P4 1423-1470 partner limits assumed, looked up): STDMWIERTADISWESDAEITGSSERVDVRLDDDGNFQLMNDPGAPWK

## Cc1oc(-c2ccccc2Cl)nc1CSCC(=O)N1CCCC1 [SMR000027739]
[1]; Table 1
  SI50 (Selectivity Index 50, ratio of CC50 to EC50): >3.4
[1]; [6]
  EC50: 29.6 µM

## C[C@@H]1Cc2ccccc2N1S(=O)(=O)c1cccc(C(=O)N2CCN(c3ncccn3)CC2)c1 [SMR000370276]
[1]; Table 1
  SI50 (Selectivity Index 50, ratio of CC50 to EC50): >5.3
[1]; [7]
  EC50: 18.9 µM
[1]; [8]
  EC50: 18.9 µM
[2]
  EC50 change pattern (time of addition): Increase: EC50_1hr ≈ EC50_4hr ≤ EC50_8hr < EC50_18hr
  EC50 change pattern over the course of infection: Increase
[3]
  SI50 *: >5
  EC90: 6.07 µM
  inhibition at 15 µM: 98.8%
[3]; Vero E6, WNV 0.1 MOI, 48 h post-infection
  Dose response in Titer reduction EC50: No solution
[4]; [9]
  CC50 at 96 h: > 100 µM
[4]; [10]
  CC50 at 96 h: > 30 µM

## CC(=O)OC[C@H]1O[C@@H](n2ncc(=O)[nH]c2=O)[C@H](OC(C)=O)[C@@H]1OC(C)=O [SMR000059052]
[1]; Table 1
  SI50 (Selectivity Index 50, ratio of CC50 to EC50): >5.0
[1]; [6]
  EC50: 20 µM

## O=C(O)c1ccccc1Nc1ccc([N+](=O)[O-])cc1 [SMR000171908]
[1]; Table 1
  SI50 (Selectivity Index 50, ratio of CC50 to EC50): >3.3
[1]; [7]
  EC50: 30.4 µM
[1]; [8]
  EC50: 30.4 µM
[2]
  EC50 change pattern (time of addition): Increase: EC50_1hr ≈ EC50_4hr ≤ EC50_8hr < EC50_18hr
  EC50 change pattern over the course of infection: Increase
[3]
  SI50 *: >25
  EC50: 1.16 µM
  EC90: 6.73 µM
[4]; [9]
  CC50 at 96 h: > 100 µM
[4]; [10]
  CC50 at 96 h: > 30 µM

## COc1cc(-c2ccc(Nc3ccccc3C(=O)O)c(OC)c2)ccc1Nc1ccccc1C(=O)O [SRI-19093, Redoxal]
[1]; Table 1
  SI50 (Selectivity Index 50, ratio of CC50 to EC50): >2.4
[1]; [7]
  EC50: 41 µM
[1]; [8]
  EC50: 41 µM
[2]
  EC50 change pattern over the course of infection: Increase
  EC50: 3.2 to 6.4 µM
[3]
  SI50 *: >200
  EC50: 0.13 µM
  EC90: 2.14 µM
  inhibition at 15 µM: 93.7%
[4]; [9]
  CC50 at 96 h: > 100 µM
[4]; [10]
  CC50 at 96 h: > 30 µM
WNV NS2b-NS3pro
  anti-NS2b-NS3pro activity (in words): inhibited viral protease in vitro

## COc1c(C)c2c(c(O)c1C/C=C(\C)CCC(=O)O)C(=O)OC2 [MPA, mycophenolic acid, reference compound]
[2]
  EC50 change pattern (time of addition): No Change : EC50_1hr ≈ EC50_4hr ≈ EC50_8hr ≈ EC50_18hr
  EC50 change pattern over the course of infection: no change
  EC50: 2 to 5 µM
[3]
  SI50 *: >1000
  EC50: 0.03 µM
  EC90: 0.94 µM
[4]; [10]
  CC50 at 96 h: > 30 µM
[5]; West Nile virus, Vero C1008, read-out: inhibition on average in primary screen
  inhibition at 5 µg/mL: 44.6%
[5]; assay optimization, MOI 0.04, 384-well
  protection: 30%

## COc1cccc2c(=O)n3c(nc12)/C(=C/c1ccc2c(c1)OCO2)CC3 [SRI-22003]
[1]; Table 1
  SI50 (Selectivity Index 50, ratio of CC50 to EC50): >8.2
[1]; [7]
  EC50: 12.2 µM
[1]; [8]
  EC50: 12.2 µM
[2]
  EC50 change pattern (time of addition): Increase: EC50_1hr ≈ EC50_4hr ≤ EC50_8hr < EC50_18hr
  EC50 change pattern over the course of infection: Increase
[3]
  SI50 *: >6
  EC50: 4.7 µM
  EC90: 5.13 µM
  inhibition at 15 µM: 98.8%
[4]; [9]
  CC50 at 96 h: > 100 µM
[4]; [10]
  CC50 at 96 h: > 30 µM

## O=C(O)c1ccccc1Nc1ccccc1 [N-Phenylanthranilic acid, reference compound]
WNV NS2b-NS3pro
  anti-NS2b-NS3pro activity (in words): could not detect any significant activity

## CC(C)C[C@H](NC(=O)c1nc[nH]c1C(=O)N1CCN(C(=O)OC(C)(C)C)CC1)C(=O)OC(C)(C)C [SMR000394098]
[1]; Table 1
  SI50 (Selectivity Index 50, ratio of CC50 to EC50): >5.1
[1]; [6]
  EC50: 19.6 µM
